{"source": "patent US20220409526A1", "about": "(Retina Foundation Of The Southwest, priority 2019, published 2022)", "key": {"[1]": {"test_system": "ARPE-19 cells", "test": "in vitro", "assay_type": "cell-based, human", "conditions": "then 500 μM HQ for 16 hours", "method": "ARPE-19 cells were grown in DMEM:F-12 supplemented with 10% fetal bovine serum (FBS). For all experiments these cells were split and grown in 6-well plates using MEM-Nic supplemented with 1% FBS according to a previously published procedure.^33 Cells used for all the experiments were between passages 25-30. For all experiments, the 96 well plates and 8-well slides were coated with 0.039 mg/mL collagen I at 6 μg/cm^2. The cells were seeded at a cell density of 70,000 cells/well and 150,000 cells/well using MEM-Nic media for 96 well plates and 8 well slides, respectively. Once the cells are confluent, media was replaced with MEM a, GlutaMAX™, supplemented with 1% FBS for 24 hours before carrying out assay protocols. Exposure to NAC alkyl-ester prodrugs were carried out in MEM a, GlutaMAX™, supplemented with 1% FBS and treatment with HQ was carried out in serum free DMEM:F-12.\nARPE-19 Cell viability assays were carried out using XTT/PMS reagent mixtures according to standard procedures known in the art (see Celis, J. E.; Carter, N., Cell Biology: A Laboratory Handbook. Elsevier Science: 2005). Corresponding absorbance readings were obtained using a plate reader at 450 and 660 nm.\nA dose dependent study was first carried out for ARPE-19 cells using HQ concentrations varying from 100-1000 μM. Cells were then incubated at 37° C., 5% CO2 for 16 hours. HQ doses of less than 400 μM were non-lethal. Using 500 μM HQ for 16 hours gave a cell viability of ˜60%.\nTo evaluate the ability of the NAC alkyl-ester analogues to provide cellular protection against oxidative stress, cells were treated with 0.05 mM of NAC, NACME, NACEE, NACPE and NACBE for 2, 24 and 48 hours. Treated cells were then exposed to 500 μM HQ for 16 hours. HQ solutions were removed and replaced with DMEM:F-12 supplemented with 1% FBS, and followed by the addition of XTT (2,3-bis-(2-methoxy-4-nitro-5-sulfophenyl)-2H-tetrazolium-5-carboxanilide) and PMS (phenazine methyl sulfate).\nTo compare the effectiveness of NACBE and NAC in protecting against oxidative damage, another dose dependent study was carried out by varying the pretreatment concentration from 0.001 mM to 1.0 mM. […] Whereas for NAC, to reach the same cell viability, 0.5 mM concentration was needed (10× times that of NACBE)."}, "[2]": {"test_system": "ARPE-19 cells", "test": "JC-1 staining (confocal)", "conditions": "1 mM pretreatment for 24 hours, then 50 μM HQ for 4 hours", "from_the_text": "The cells were imaged on the confocal (Zeiss LSM 800) by excitation with the 488 nm laser and emission imaged at 530 nm (green channel) and 590 nm (red channel)."}, "[3]": {"test_system": "mitochondria isolated from ARPE-19 cells", "test": "Mitochondrial GSH assay", "assay_type": "cell-based, human", "conditions": "1 mM for 24 hours; compared to NAC and ARPE-19 cells", "method": "A GSH assay was carried out for isolated mitochondria to study the mechanism of action of the NAC alkyl-ester analogues in protecting mitochondria. ARPE-19 cells were grown in 6 well plates until 100% confluent in MEM-NIC media. The cells were exposed to 3 mL of 1 mM solutions of NAC and NACBE for 24 hours. The solutions were removed and washed with 3 mL of HBSS before adding 1 mL of 0.25% Trypsin-EDTA and incubating for 10 minutes. 2 mL of DMEM:F-12 supplemented with 10% FBS was added to each well, harvested and centrifuged at 300 rcf for 5 minutes. The supernatant was removed and cell pellet was resuspended in 2 mL of isolation buffer (0.25 M sucrose and 10 mM HEPES).\nCells were disrupted using a probe sonicator (Misonix 5-3000) for 10 seconds in ice. Subsequently, intact cells and debris were removed by centrifuging at 1000 g for 10 mins. Supernatant was collected, and centrifuged at 20,000 g for 25 minutes. Pellet containing mitochondria were saved and washed using 0.5 mL of isolation buffer. After centrifuging at 20,000 g for 25 minutes the mitochondrial pellet was resuspended in 50 μL of HBSS. 25 μL was used to determine total GSH and GSSG and 25 μL was used to determine GSSG levels. GSH assay was then carried out according to manufacturer recommended protocol (Promega GSH/GSSG-Glo™) and luminescence readings were obtained."}}}
{"smiles": "CCCCOC(=O)[C@H](CS)NC(C)=O", "note": "[NACBE, N-acetylcysteine butyl ester]", "values": [{"measurement": "change in cell viability upon exposure to HQ", "setting": "[1]; 0.05 mM pretreatment for 24 and 48 hours, compared to NAC and the control", "result": "comparatively a higher cell viability"}, {"measurement": "change in cell viability upon exposure to HQ", "setting": "[1]; 0.05 mM pretreatment for 2 hours", "result": "marginal effect"}, {"measurement": "pretreatment concentration at which 100% cell viability was obtained", "setting": "[1]; pretreatment 0.001-1.0 mM for 24 hours", "result": 0.05, "unit": "mM"}, {"measurement": "mitochondrial membrane potential after HQ (JC-1 staining)", "setting": "[2]", "result": "preserved the mitochondrial membrane potential"}, {"measurement": "mitochondrial GSH level (luminescence intensity)", "setting": "[3]", "result": "increase in the luminescence intensity"}]}
